Columns and labels:
MV-4-11 cells = assay: Cell growth inhibition assay (CellTiter-Glo), MV-4-11; type: cell-based; conditions: Homo sapiens, MV4-11, read-out: MV-4-11 TGI
In short: (§1)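 Dose-response over 3-fold dilutions from 10 μM; 0.1% DMSO control. Endpoint: CellTiter-Glo ATP signal, background-subtracted and day 0-corrected.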

THP-1 cells = assay: Cell growth inhibition assay (CellTiter-Glo), THP-1; type: cell-based; conditions: Homo sapiens, read-out: THP-1 TGI
In short: as §1

[1] = molecular target: His-CREBBP (1081-1197) bromodomain (Homo sapiens (Human), UniProt Q92793); assay: AlphaScreen in-vitro binding assay for CREBBP; conditions: biochemical
His-CREBBP (1081-1197) bromodomain, sequence (Q92793 1081-1197): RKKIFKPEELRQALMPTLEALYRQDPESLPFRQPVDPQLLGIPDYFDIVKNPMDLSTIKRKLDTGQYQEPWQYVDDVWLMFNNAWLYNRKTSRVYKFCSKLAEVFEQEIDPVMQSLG
In short: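 Ni-chelate acceptor and streptavidin donor beads (45 µg/mL each, in 50 mM HEPES pH 7.5, 150 mM NaCl, 0.02% BSA) were then added for 60 min at room temperature. IC50 came from 8-point non-linear regression.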

His-Brd2(60-472) = His-Brd2(60-472) (Homo sapiens (Human), UniProt P25440); assay: TR-FRET in-vitro binding assay for BRD2; conditions: biochemical
His-Brd2(60-472), sequence (P25440 60-472): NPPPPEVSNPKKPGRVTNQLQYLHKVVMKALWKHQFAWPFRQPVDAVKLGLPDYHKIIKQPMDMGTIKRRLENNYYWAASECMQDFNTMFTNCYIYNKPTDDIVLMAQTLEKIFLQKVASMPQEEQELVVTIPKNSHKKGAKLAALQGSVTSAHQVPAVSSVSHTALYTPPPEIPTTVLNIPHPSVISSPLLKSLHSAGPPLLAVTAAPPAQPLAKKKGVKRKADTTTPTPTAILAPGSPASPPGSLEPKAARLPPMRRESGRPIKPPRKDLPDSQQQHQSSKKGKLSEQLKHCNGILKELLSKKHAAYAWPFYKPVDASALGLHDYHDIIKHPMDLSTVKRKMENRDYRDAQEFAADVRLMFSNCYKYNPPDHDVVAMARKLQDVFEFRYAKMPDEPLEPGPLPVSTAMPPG
In short: (§2)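 Eight-point dilution series tested against in-house His-BRD2(60-472), BRD3(20-477) or BRD4(44-477) (45 nM in dispensed solution) binding acetyl-histone H4 (AcK5,8,12,16; 60 nM in dispensed solution). Incubation 35 min at 30 °C, pH 7.5 HEPES buffer; detection by TR-FRET using Eu-anti-His6 and streptavidin-allophycocyanin.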

His-Brd4(44-477) = His-Brd4(44-477) (Homo sapiens (Human), UniProt O60885); assay: TR-FRET in-vitro binding assay for BRD4; conditions: biochemical
In short: as §2

His-Brd3(20-477) = His-Brd3(20-477) (Homo sapiens (Human), UniProt Q15059); assay: TR-FRET in-vitro binding assay for BRD3; conditions: biochemical
His-Brd3(20-477), sequence (Q15059 20-477): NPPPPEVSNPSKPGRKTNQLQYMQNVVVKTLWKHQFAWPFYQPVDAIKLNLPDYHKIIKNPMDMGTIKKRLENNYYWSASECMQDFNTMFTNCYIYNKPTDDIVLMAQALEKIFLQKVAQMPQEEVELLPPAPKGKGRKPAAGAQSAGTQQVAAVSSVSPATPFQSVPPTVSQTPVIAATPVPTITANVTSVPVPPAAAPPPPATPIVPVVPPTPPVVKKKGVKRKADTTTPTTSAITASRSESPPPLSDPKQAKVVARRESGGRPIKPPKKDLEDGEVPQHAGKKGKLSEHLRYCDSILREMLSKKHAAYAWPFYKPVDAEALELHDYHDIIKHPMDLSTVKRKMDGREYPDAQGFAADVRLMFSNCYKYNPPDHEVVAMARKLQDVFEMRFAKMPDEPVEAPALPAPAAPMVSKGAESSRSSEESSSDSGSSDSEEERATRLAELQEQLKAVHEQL
In short: as §2

K-562 cells = assay: Cell growth inhibition assay (CellTiter-Glo), K-562; type: cell-based, human; conditions: Homo sapiens, K562, read-out: K-562 TGI
In short: as §1

Compound	IC (total growth inhibition) (MV-4-11 cells)	IC (total growth inhibition) (THP-1 cells)	IC50 [1]	IC50 (His-Brd2(60-472))	IC50 (His-Brd4(44-477))	IC50 (His-Brd3(20-477))	IC (total growth inhibition) (K-562 cells)
Cc1nn(C)c2c1C(c1ccc(Cl)cc1)N(c1cc(Cl)c(=O)n(C)c1)C2=O (centres unmarked) [Example 58, 5-(5-chloro-1-methyl-6-oxo-1,6-dihydropyridin-3-yl)-4-(4-chlorophenyl)-1,3-dimethyl-4,5-dihydropyrrolo[3,4-c]pyrazol-6(1H)-one]	0.157 µM	0.38 µM	8.2 µM	560 nM	410 nM	290 nM	> 10 µM
COc1ncc(-n2nc3c(c2C)C(c2ccc(Cl)cc2)N(c2cc(C)c(=O)n(C)c2)C3=O)c(OC)n1 (centres unmarked) [Example 56, 4-(4-chlorophenyl)-2-(2,4-dimethoxypyrimidin-5-yl)-5-(1,5-dimethyl-6-oxo-1,6-dihydropyridin-3-yl)-3-methyl-4,5-dihydropyrrolo[3,4-c]pyrazol-6(2H)-one]	0.0981 µM	0.124 µM	0.56 µM	69 nM	95 nM	61 nM	> 10 µM
Cc1n[nH]c2c1C(c1ccc(F)cc1F)N(c1cc(C)c3nnc(C)n3c1)C2=O (centres unmarked) [Example 172, 4-(2,4-difluorophenyl)-5-(3,8-dimethyl-[1,2,4]triazolo[4,3-a]pyridin-6-yl)-3-methyl-4,5-dihydropyrrolo[3,4-c]pyrazol-6(2H)-one]	0.323 µM	0.782 µM	> 37 µM	220 nM	97 nM	110 nM	> 10 µM
COc1nccc(-n2nc(C)c3c2C(=O)N(c2cc(C)c(=O)n(C)c2)C3c2ccc(Cl)cc2)n1 (centres unmarked) [Example 59, 4-(4-chlorophenyl)-5-(1,5-dimethyl-6-oxo-1,6-dihydropyridin-3-yl)-1-(2-methoxypyrimidin-4-yl)-3-methyl-4,5-dihydropyrrolo[3,4-c]pyrazol-6(1H)-one]	0.325 µM	0.598 µM	7.3 µM	610 nM	390 nM	480 nM	> 10 µM
CCn1nc2c(c1C)C(c1ccc(Cl)cc1F)N(c1cc(C)c(=O)n(C)c1)C2=O (centres unmarked) [Example 171, 4-(4-chloro-2-fluorophenyl)-5-(1,5-dimethyl-6-oxo-1,6-dihydropyridin-3-yl)-2-ethyl-3-methyl-4,5-dihydropyrrolo[3,4-c]pyrazol-6(2H)-one]	0.174 µM	0.297 µM	1.5 µM	140 nM	140 nM	93 nM	> 10 µM
CCn1nc(C)c2c1C(=O)N(c1cc(C)c3nnc(C)n3c1)C2c1ccc(F)cc1F (centres unmarked) [Example 181, 4-(2,4-difluorophenyl)-5-(3,8-dimethyl-[1,2,4]triazolo[4,3-a]pyridin-6-yl)-1-ethyl-3-methyl-4,5-dihydropyrrolo[3,4-c]pyrazol-6(1H)-one]	0.0886 µM	0.117 µM	> 37 µM	62 nM	34 nM	40 nM	> 10 µM
COCc1nn(C2CC2)c2c1[C@@H](c1ccc(Cl)cc1)N(c1cc(C)c(=O)n(C)c1)C2=O [Example 162, (R)-4-(4-chlorophenyl)-1-cyclopropyl-5-(1,5-dimethyl-6-oxo-1,6-dihydropyridin-3-yl)-3-(methoxymethyl)-4,5-dihydropyrrolo[3,4-c]pyrazol-6(1H)-one]	0.0903 µM	0.173 µM	3.7 µM	39 nM	41 nM	42 nM	> 10 µM
CCn1nc2c(c1C)C(c1ccc(F)cc1F)N(c1cc(C)c3nnc(C)n3c1)C2=O (centres unmarked) [Example 182, 4-(2,4-difluorophenyl)-5-(3,8-dimethyl-[1,2,4]triazolo[4,3-a]pyridin-6-yl)-2-ethyl-3-methyl-4,5-dihydropyrrolo[3,4-c]pyrazol-6(2H)-one]	0.12 µM	0.217 µM	27 µM	120 nM	46 nM	51 nM	> 10 µM
Cc1n[nH]c2c1[C@@H](c1ccc(Cl)cc1)N(c1cc(C)c3nnc(C)n3c1)C2=O [Example 165, (R)-4-(4-chlorophenyl)-5-(3,8-dimethyl-[1,2,4]triazolo[4,3-a]pyridin-6-yl)-3-methyl-4,5-dihydropyrrolo[3,4-c]pyrazol-6(1H)-one]	0.0396 µM	0.0921 µM	4.6 µM	17 nM	15 nM	23 nM	> 10 µM
Cc1nn(C(C)C)c2c1C(c1ccc(F)cc1F)N(c1cc(C)c3nnc(C)n3c1)C2=O (centres unmarked) [Example 174, 4-(2,4-difluorophenyl)-5-(3,8-dimethyl-[1,2,4]triazolo[4,3-a]pyridin-6-yl)-1-isopropyl-3-methyl-4,5-dihydropyrrolo[3,4-c]pyrazol-6(1H)-one]	0.0588 µM	0.105 µM	12 µM	110 nM	52 nM	72 nM	> 10 µM
Cc1nn(C(C)C)c2c1C(c1ccc(Cl)cc1)N(c1cc(Cl)c(=O)n(C)c1)C2=O (centres unmarked) [Example 66, 5-(5-chloro-1-methyl-6-oxo-1,6-dihydropyridin-3-yl)-4-(4-chlorophenyl)-1-isopropyl-3-methyl-4,5-dihydropyrrolo[3,4-c]pyrazol-6(1H)-one]	0.106 µM	0.248 µM	2.6 µM	160 nM	120 nM	110 nM	> 10 µM
Cc1nn(C(C)C)c2c1[C@@H](c1ccc(Cl)cc1F)N(c1cc(C)c3nnc(C)n3c1)C2=O [Example 189, (S)-4-(4-chloro-2-fluorophenyl)-5-(3,8-dimethyl-[1,2,4]triazolo[4,3-a]pyridin-6-yl)-1-isopropyl-3-methyl-4,5-dihydropyrrolo[3,4-c]pyrazol-6(1H)-one]	0.0269 µM	0.0261 µM	3.8 µM	40 nM	29 nM	33 nM	> 10 µM
COc1ncccc1-n1nc(C)c2c1C(=O)N(c1cc(C)c(=O)n(C)c1)C2c1ccc(Cl)cc1 (centres unmarked) [Example 71, 4-(4-chlorophenyl)-5-(1,5-dimethyl-6-oxo-1,6-dihydropyridin-3-yl)-1-(2-methoxypyridin-3-yl)-3-methyl-4,5-dihydropyrrolo[3,4-c]pyrazol-6(1H)-one]	0.103 µM	0.178 µM	5.9 µM	41 nM	53 nM	58 nM	> 10 µM
Cc1cc(N2C(=O)c3c(c(C(F)(F)F)nn3C3CC3)C2c2ccc(Cl)cc2)cn(C)c1=O (centres unmarked) [Example 45, 4-(4-chlorophenyl)-1-cyclopropyl-5-(1,5-dimethyl-6-oxo-1,6-dihydropyridin-3-yl)-3-(trifluoromethyl)-4,5-dihydropyrrolo[3,4-c]pyrazol-6(1H)-one]	0.373 µM	0.698 µM	4.8 µM	60 nM	85 nM	100 nM	> 10 µM
CCn1nc(C)c2c1C(=O)N(c1cc(C)c(=O)n(C)c1)C2c1ccc(Cl)cc1F (centres unmarked) [Example 170, 4-(4-chloro-2-fluorophenyl)-5-(1,5-dimethyl-6-oxo-1,6-dihydropyridin-3-yl)-1-ethyl-3-methyl-4,5-dihydropyrrolo[3,4-c]pyrazol-6(1H)-one]	0.0159 µM	0.0331 µM	0.63 µM	16 nM	15 nM	13 nM	> 10 µM
COc1ncccc1-n1nc2c(c1C)C(c1ccc(Cl)cc1F)N(c1cc(C)c3nnc(C)n3c1)C2=O (centres unmarked) [Example 194, 4-(4-chloro-2-fluorophenyl)-5-(3,8-dimethyl-[1,2,4]triazolo[4,3-a]pyridin-6-yl)-2-(2-methoxypyridin-3-yl)-3-methyl-4,5-dihydropyrrolo[3,4-c]pyrazol-6(2H)-one]	0.0936 µM	0.174 µM	5.2 µM	90 nM	45 nM	65 nM	> 10 µM
Cc1nn(C)c2c1C(c1ccc(Cl)cc1)N(c1cc(C)c(=O)n(C)c1)C2=O (centres unmarked) [Example 57, 4-(4-chlorophenyl)-5-(1,5-dimethyl-6-oxo-1,6-dihydropyridin-3-yl)-1,3-dimethyl-4,5-dihydropyrrolo[3,4-c]pyrazol-6(1H)-one]	0.109 µM	0.24 µM	6.8 µM	270 nM	120 nM	130 nM	> 10 µM

Source: patent US8975417B2, “Pyrazolopyrrolidine derivatives and their use in the treatment of disease” (Novartis AG, priority 2013, dated 2015)
